Four molecules from US7732457B2, “Amino-pyridines as inhibitors of β-secretase” (Wyeth LLC, priority 2005, dated 2010) can be followed below.

Data set [1] addresses human BACE1 (Homo sapiens, UniProt P56817). The data set can be described thus: BACE-1 fluorescent kinetic assay (cleavage of peptide substrate WABC-6). Type of data set: biochemical. The settings on record: 10 nM enzyme, 25 μM substrate WABC-6, Na-Acetate pH 4.5, room temperature. The protocol: Evaluation of BACE-1 Binding Affinity of Test Compounds
Fluorescent Kinetic Assay
Dilution and mixing steps: total reaction volume: 100 μL
100 μM substrate dilution in 1×PBS was prepared, and
Fluorescence Readings: Readings at λex 320 nm and λem 420 nm are taken every 40 sec for 30 min at room temperature and the linear slope for substrate cleavage rate (vi) determined.

human BACE1, sequence (P56817 46-501): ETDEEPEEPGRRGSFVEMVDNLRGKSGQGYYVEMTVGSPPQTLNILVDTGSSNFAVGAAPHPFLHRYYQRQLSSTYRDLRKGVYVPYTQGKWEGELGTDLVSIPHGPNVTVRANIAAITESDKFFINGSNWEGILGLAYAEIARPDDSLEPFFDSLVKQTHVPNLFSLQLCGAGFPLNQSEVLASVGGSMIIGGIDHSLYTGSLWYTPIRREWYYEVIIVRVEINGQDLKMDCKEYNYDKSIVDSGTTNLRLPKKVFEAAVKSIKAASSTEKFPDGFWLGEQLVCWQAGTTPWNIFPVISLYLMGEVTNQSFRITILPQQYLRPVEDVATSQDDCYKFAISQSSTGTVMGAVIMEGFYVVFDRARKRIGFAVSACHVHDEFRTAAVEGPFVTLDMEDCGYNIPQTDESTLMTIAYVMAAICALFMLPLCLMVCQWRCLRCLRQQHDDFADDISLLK

In general, melting point refers to the temperature, or range, at which the solid turns liquid. Regarding `Nc1cccc(Cn2c(-c3ccccc3)ccc2-c2ccc(C(=O)NCC3CCCO3)cc2)n1` (centres unmarked) [Example 66, 4-{1-[(6-aminopyridin-2-yl)methyl]-5-phenyl-1H-pyrrol-2-yl}-N-(tetrahydrofuran-2-ylmethyl)benzamide], the melting point lay in the range of 98 to 99 °C. Moreover, the “BACE 1 IC50 μM” value in data set [1] is “D (D = >5.0 μM-0.10 = μM)”.

Regarding `Nc1cccc(Cn2c(-c3ccc(NC(=O)c4cccc(Br)c4)cc3)ccc2-c2ccccc2Cl)n1` [Example 2, N-{4-[1-(6-Amino-pyridin-2-ylmethyl)-5-(2-chloro-phenyl)-1H-pyrrol-2-yl]-phenyl}-3-bromo-benzamide], the melting point was 116 to 122 °C. The “BACE 1 IC50 μM” value in data set [1] is “D (D = >5.0 μM-0.10 = μM)”.

As for `Cc1cccc(C(=O)Nc2ccc(-c3ccc(-c4ccccc4Cl)n3Cc3cccc(N)n3)cc2)c1` [Example 1, N-{4-[1-(6-Amino-pyridin-2-ylmethyl)-5-(2-chloro-phenyl)-1H-pyrrol-2-yl]-phenyl}-3-methyl-benzamide], the melting point is 108 to 118 °C. Also, the “BACE 1 IC50 μM” value in data set [1] was “D (D = >5.0 μM-0.10 = μM)”.

With `Nc1cccc(Cn2c(-c3ccc(O)cc3)ccc2-c2ccccc2Cl)n1` [Example 6, 4-[1-(6-Amino-pyridin-2-ylmethyl)-5-(2-chloro-phenyl)-1H-pyrrol-2-yl]-phenol], the melting point lay within 170 to 172 °C. In addition, the “BACE 1 IC50 μM” value in data set [1] is on record as “D (D = >5.0 μM-0.10 = μM)”.
